Values quoted from earlier work in patent US20100310475A1, “Biocide Capsules, Preparation Comprising them and Sanitary Pad Comprising the Preparation” (DOLHAY KLINIKA EG[…]., priority 2007, published 2010).

System: pathogens
Details: water solution

**Q.** With “polyvinyl-pyrrolidone iodine [PVP-iodine]” as the substance, how does the most effective concentration-range read?
**A.** Its most effective concentration-range is 0.01-1 % by weight.
